In this test the target is T1, hM5 (Homo sapiens, UniProt P08912).
T1 construct: expressed in transfected cells
T1 sequence (P08912 1-532): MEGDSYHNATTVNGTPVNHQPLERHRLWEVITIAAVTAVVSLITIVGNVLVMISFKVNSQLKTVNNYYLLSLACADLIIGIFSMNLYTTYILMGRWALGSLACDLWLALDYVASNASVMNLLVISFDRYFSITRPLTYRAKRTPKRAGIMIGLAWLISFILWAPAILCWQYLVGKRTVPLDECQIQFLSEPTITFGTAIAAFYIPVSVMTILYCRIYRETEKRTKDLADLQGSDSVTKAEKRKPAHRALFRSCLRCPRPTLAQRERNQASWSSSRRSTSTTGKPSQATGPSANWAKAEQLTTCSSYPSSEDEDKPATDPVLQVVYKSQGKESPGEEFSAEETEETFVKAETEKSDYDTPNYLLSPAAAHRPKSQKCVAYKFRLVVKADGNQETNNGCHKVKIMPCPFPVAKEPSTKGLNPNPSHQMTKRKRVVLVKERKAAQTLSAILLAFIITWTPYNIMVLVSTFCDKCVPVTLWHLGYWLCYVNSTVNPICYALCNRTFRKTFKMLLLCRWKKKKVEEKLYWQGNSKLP
The test is described as follows: Calcium mobilization concentration-response (IC50 vs EC80 acetylcholine), CHO hM5. It is filed as cell-based. Conditions: CELL LINE hM5; calcium mobilization, EC80 acetylcholine addition; read-out: IC50. An outline of the steps:
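IC50 values derive from percent maximal acetylcholine response after an EC80 ACh addition, measured as kinetic calcium fluorescence (static ratio, max−min). Test compounds were added 140 s before agonist. Cells: stable hM5-CHO in HEPES-buffered HBSS with 2.5 mM probenecid, pH 7.4; ≥3 independent triplicate determinations.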

Take `Cc1cc2ncnn2cc1C1CCN(S(=O)(=O)c2ccc3c(c2)C(C)(C)CO3)CC1` [Compound 74, 6-(1-((3,3-dimethyl-2,3-dihydrobenzofuran-5-yl)sulfonyl)piperidin-4-yl)-7-methyl-[1,2,4]triazolo[1,5-a]pyridine]: the IC50 was greater than 10 µM. In the case of `Cc1nc2cc(C)c(C3CCN(S(=O)(=O)c4ccc5c(c4)CCO5)CC3)cn2n1` [Compound 76, 6-(1-((2,3-dihydrobenzofuran-5-yl)sulfonyl)piperidin-4-yl)-2,7-dimethyl-[1,2,4]triazolo[1,5-a]pyridine] it was greater than 10 µM; in that of `Cc1nc2cc(C)c(C3CCN(S(=O)(=O)c4cc5c(cc4F)OCC5)CC3)cn2n1` [Compound 77, 6-(1-((6-fluoro-2,3-dihydrobenzofuran-5-yl)sulfonyl)piperidin-4-yl)-2,7-dimethyl-[1,2,4]triazolo[1,5-a]pyridine], greater than 10 µM; in that of `Cc1nc2cc(C)c(C3CCN(S(=O)(=O)c4ccc5ncsc5c4)CC3)cn2n1` [Compound 78, 6-((4-(2,7-dimethyl-[1,2,4]triazolo[1,5-a]pyridin-6-yl)piperidin-1-yl)sulfonyl)benzo[d]thiazole], greater than 10 µM.

Take `Cc1nc2cc(C)c(C3CCN(S(=O)(=O)c4cn(C)nc4C)CC3)cn2n1` [Compound 79, 6-(1-((1,3-dimethyl-1H-pyrazol-4-yl)sulfonyl)piperidin-4-yl)-2,7-dimethyl-[1,2,4]triazolo[1,5-a]pyridine]: the IC50 was greater than 10 µM. For the molecule `COc1cc2ncnn2cc1C1CCN(S(=O)(=O)c2ccc3c(c2)CCO3)CC1` [Compound 80, 6-(1-((2,3-dihydrobenzofuran-5-yl)sulfonyl)piperidin-4-yl)-7-methoxy-[1,2,4]triazolo[1,5-a]pyridine], the 50% inhibitory concentration (IC50) is greater than 10 µM.

Turning to `COc1cc2ncnn2cc1C1CCN(S(=O)(=O)c2cc3c(cc2F)OCC3)CC1` [Compound 81, 6-(1-((6-fluoro-2,3-dihydrobenzofuran-5-yl)sulfonyl)piperidin-4-yl)-7-methoxy-[1,2,4]triazolo[1,5-a]pyridine], the IC50 is greater than 10 µM. In the case of `COc1cc2ncnn2cc1C1CCN(S(=O)(=O)c2ccc3ncsc3c2)CC1` [Compound 82, 6-((4-(7-methoxy-[1,2,4]triazolo[1,5-a]pyridin-6-yl)piperidin-1-yl)sulfonyl)benzo[d]thiazole] it was greater than 10 µM; in that of `COc1cc2ncnn2cc1C1CCN(S(=O)(=O)c2cn(C)nc2C)CC1` [Compound 83, 6-(1-((1,3-dimethyl-1H-pyrazol-4-yl)sulfonyl)piperidin-4-yl)-7-methoxy-[1,2,4]triazolo[1,5-a]pyridine], greater than 10 µM. In the case of `Cc1cc2ncnn2cc1C1=CCN(S(=O)(=O)c2cc3c(cc2C)OCC3C)CC1` (stereo not shown) [Compound 84, 6-(1-((3,6-dimethyl-2,3-dihydrobenzofuran-5-yl)sulfonyl)-1,2,3,6-tetrahydropyridin-4-yl)-7-methyl-[1,2,4]triazolo[1,5-a]pyridine] it was 0.185 µM; in that of `Cc1cc2c(cc1S(=O)(=O)N1CCC(c3ccc4ncnn4c3C)CC1)C(C)CO2` (stereo not shown) [Compound 85, 6-(1-((3,6-dimethyl-2,3-dihydrobenzofuran-5-yl)sulfonyl)piperidin-4-yl)-5-methyl-[1,2,4]triazolo[1,5-a]pyridine], 6.3 µM. In the case of `Cc1cc2c(cc1S(=O)(=O)N1CCC(c3cc(C)c4ncnn4c3)CC1)C(C)CO2` (stereo not shown) [Compound 86, 6-(1-((3,6-dimethyl-2,3-dihydrobenzofuran-5-yl)sulfonyl)piperidin-4-yl)-8-methyl-[1,2,4]triazolo[1,5-a]pyridine], the IC50 was determined as 9.2 µM. Then `Cc1nc2cc(C)c(C3CCN(S(=O)(=O)c4cc5c(cc4C)OCC5C)CC3)cn2n1` (stereo not shown) [Compound 87], with 1.3 µM; and `COc1cc2ncnn2cc1C1CCN(S(=O)(=O)c2cc3c(cc2C)OCC3C)CC1` (stereo not shown) [Compound 88, 6-(1-((3,6-dimethyl-2,3-dihydrobenzofuran-5-yl)sulfonyl)piperidin-4-yl)-7-methoxy-[1,2,4]triazolo[1,5-a]pyridine], with 0.804 µM; and `Cc1nc2cc(C)c(C3CCN(S(=O)(=O)c4ccc5c(c4)C(C)CO5)CC3)cn2n1` (stereo not shown) [Compound 89, 2,7-dimethyl-6-(1-((3-methyl-2,3-dihydrobenzofuran-5-yl)sulfonyl)piperidin-4-yl)-[1,2,4]triazolo[1,5-a]pyridine], with 2.1 µM.

On to `COc1cc2ncnn2cc1C1CCN(S(=O)(=O)c2ccc3c(c2)C(C)CO3)CC1` (stereo not shown) [Compound 90, 7-methoxy-6-(1-((3-methyl-2,3-dihydrobenzofuran-5-yl)sulfonyl)piperidin-4-yl)-[1,2,4]triazolo[1,5-a]pyridine], for which the IC50 was 3.1 µM. In the case of `[2H]C1([2H])Oc2ccc(S(=O)(=O)N3CCC(c4cn5nc(C)nc5cc4C)CC3)cc2C1([2H])[2H]` [Compound 91, 6-(1-((2,3-dihydrobenzofuran-5-yl-2,2,3,3-d4)sulfonyl)piperidin-4-yl)-2,7-dimethyl-[1,2,4]triazolo[1,5-a]pyridine] it was greater than 10 µM; in that of `[2H]C1([2H])Oc2ccc(S(=O)(=O)N3CCC(c4cn5ncnc5cc4OC)CC3)cc2C1([2H])[2H]` [Compound 92, 6-(1-((2,3-dihydrobenzofuran-5-yl-2,2,3,3-d4)sulfonyl)piperidin-4-yl)-7-methoxy-[1,2,4]triazolo[1,5-a]pyridine], greater than 10 µM.

For `O=S(=O)(c1cc2c(cc1F)OCC2)N1CCC(c2cc3cc[nH]c3cn2)CC1` [Compound 93, 5-(1-((6-fluoro-2,3-dihydrobenzofuran-5-yl)sulfonyl)piperidin-4-yl)-1H-pyrrolo[2,3-c]pyridine], the IC50 is greater than 10 µM. With `O=S(=O)(c1ccc(Cl)nc1)N1CCC(c2cc3cc[nH]c3cn2)CC1` [Compound 94, 5-(1-((6-chloropyridin-3-yl)sulfonyl)piperidin-4-yl)-1H-pyrrolo[2,3-c]pyridine], the IC50 is greater than 10 µM. Take `Cc1nn(C)cc1S(=O)(=O)N1CCC(c2cc3cc[nH]c3cn2)CC1` [Compound 95, 5-(1-((1,3-dimethyl-1H-pyrazol-4-yl)sulfonyl)piperidin-4-yl)-1H-pyrrolo[2,3-c]pyridine]: the IC50 was greater than 10 µM. In the case of `Cc1cc2ncnn2cc1C1CCN(S(=O)(=O)c2ccccc2-c2ccno2)CC1` [Compound 96, 5-(2-((4-(7-methyl-[1,2,4]triazolo[1,5-a]pyridin-6-yl)piperidin-1-yl)sulfonyl)phenyl)isoxazole] it was greater than 10 µM; in that of `Cc1cc2ncnn2cc1C1CCN(S(=O)(=O)c2ccccc2F)CC1` [Compound 97, 6-(1-((2-fluorophenyl)sulfonyl)piperidin-4-yl)-7-methyl-[1,2,4]triazolo[1,5-a]pyridine], greater than 10 µM.

As for `O=S(=O)(c1ccc2c(c1)CCO2)N1CCC(c2nccs2)CC1` [Compound 98, 2-(1-((2,3-dihydrobenzofuran-5-yl)sulfonyl)piperidin-4-yl)thiazole], the IC50 is greater than 10 µM. Then `Cn1cc(S(=O)(=O)N2CCC(c3cn4ncnc4cc3C(F)(F)F)CC2)c(C(F)(F)F)n1` [Compound 99, 6-(1-((1-methyl-3-(trifluoromethyl)-1H-pyrazol-4-yl)sulfonyl)piperidin-4-yl)-7-(trifluoromethyl)-[1,2,4]triazolo[1,5-a]pyridine], with 5.2 µM. Take `Cc1cc2ncnn2cc1C1CCN(S(=O)(=O)c2cc3c(cc2C)OCC3C)CC1` (stereo not shown) [Compound 100, 6-(1-((3,6-dimethyl-2,3-dihydrobenzofuran-5-yl)sulfonyl)piperidin-4-yl)-7-methyl-[1,2,4]triazolo[1,5-a]pyridine]: the IC50 amounted to 0.039 µM. In the case of `Cc1cc2ncnn2cc1C1CCN(S(=O)(=O)c2cn(C)nc2C(F)(F)F)CC1` [Compound 101, 7-methyl-6-(1-((1-methyl-3-(trifluoromethyl)-1H-pyrazol-4-yl)sulfonyl)piperidin-4-yl)-[1,2,4]triazolo[1,5-a]pyridine] it was 2.1 µM; in that of `Cc1cc2ncnn2cc1C1CCN(S(=O)(=O)c2cn(-c3ccccc3)nc2C)CC1` [Compound 102, 7-methyl-6-(1-((3-methyl-1-phenyl-1H-pyrazol-4-yl)sulfonyl)piperidin-4-yl)-[1,2,4]triazolo[1,5-a]pyridine], greater than 10 µM. For `Cc1cc2ncnn2cc1C1CCN(S(=O)(=O)c2cc3c(cc2F)OCC3C)CC1` (stereo not shown) [Compound 103, 6-(1-((6-fluoro-3-methyl-2,3-dihydrobenzofuran-5-yl)sulfonyl)piperidin-4-yl)-7-methyl-[1,2,4]triazolo[5-a]pyridine], the IC50 worked out at 0.195 µM. Take `Cc1cc2ncnn2cc1C1CCN(S(=O)(=O)c2ccc3c(c2F)C(C)CO3)CC1` (stereo not shown) [Compound 104, 6-(1-((4-fluoro-3-methyl-2,3-dihydrobenzofuran-5-yl)sulfonyl)piperidin-4-yl)-7-methyl-[1,2,4]triazolo[1,5-a]pyridine]: the IC50 amounted to 0.114 µM. Then `O=S(=O)(c1ccc2c(c1)CCO2)N1CCC(c2cn3ncnc3cc2F)CC1` [Compound 105, 6-(1-((2,3-dihydrobenzofuran-5-yl)sulfonyl)piperidin-4-yl)-7-fluoro-[1,2,4]triazolo[1,5-a]pyridine], with 2.1 µM.

These data come from patent US20230183237A1, “COMPETITIVE AND NONCOMPETITIVE INHIBITORS OF THE MUSCARINIC ACETYLCHOLINE RECEPTOR M5” (Vanderbilt University, priority 2020, published 2023).
